Oligonucleotides are written 5' to 3', each unit as a sugar letter and its base; * is a phosphorothioate linkage, no mark a phosphodiester; rarer units and linkages stand in square brackets, end groups in braces. Plain capitals give the bases only. d = 2'-deoxy (DNA)
Test system: human CD40 mRNA
Experiment: Inhibition of CD40 mRNA levels by oligonucleotides (real-time RT-PCR)
Type: cell-based
Parameters: concentration or dose not given beside the values
Conditions: oligodeoxynucleotides with phosphorothioate backbones throughout; averages from three experiments
Procedure: When cells reach about 80% confluency, they are treated with oligonucleotide. For cells grown in 96-well plates, wells are washed once with 200 μl Opti-MEM-1 reduced-serum medium (Life Technologies) and then treated with 130 μl of Opti-MEM-1 containing 3.75 μg/ml LIPOFECTIN (Life Technologies) and the desired oligonucleotide at a final concentration of 150 nM. After 4 hours of treatment, the medium was replaced with fresh medium. Cells were harvested 16 hours after oligonucleotide treatment.
Poly(A)+ mRNA was isolated according to Miura et al. (Clin. Chem., 1996, 42, 1758). Briefly, for cells grown on 96-well plates, growth medium was removed from the cells and each well was washed with 200 ul cold PBS. 60 ul lysis buffer (10 mM Tris-HCl, pH 7.6, 1 mM EDTA, 0.5 M NaCl, 0.5% NP-40, 20 mM vanadyl-ribonucleoside complex) was added to each well, the plate was gently agitated and then incubated at room temperature for five minutes. 55 ul of lysate was transferred to Oligo d(T) coated 96 well plates (AGCT Inc., Irvine, Calif.). Plates were incubated for 60 minutes at room temperature, washed 3 times with 200 ul of wash buffer (10 mM Tris-HCl pH 7.6, 1 mM EDTA, 0.3 M NaCl). After the final wash, the plate was blotted on paper towels to remove excess wash buffer and then air-dried for 5 minutes. 60 ul of elution buffer (5 mM Tris-HCl pH 7.6), preheated to 70° C. was added to each well, the plate was incubated on a 90° hot plate for 5 minutes, and the eluate then transferred to a fresh 96 well plate. Cells grown on 100 mm or other standard plates may be treated similarly, using appropriate volumes of all solutions.
Quantitation of CD40 mRNA levels was determined by real-time PCR (RT-PCR) using the ABI PRISM 7700 Sequence Detection System (PE-Applied Biosystems, Foster City, Calif.) according to manufacturer's instructions. This is a closed-tube, non-gel-based, fluorescence detection system which allows high-throughput quantitation of polymerase chain reaction (PCR) products in real-time.
As opposed to standard PCR, in which amplification products are quantitated after the PCR is completed, products in RT-PCR are quantitated as they accumulate. This is accomplished by including in the PCR reaction an oligonucleotide probe that anneals specifically between the forward and reverse PCR primers, and contains two fluorescent dyes. A reporter dye (e.g., JOE or FAM, PE-Applied Biosystems, Foster City, Calif.) is attached to the 5′ end of the probe and a quencher dye (e.g., TAMRA, PE-Applied Biosystems, Foster City, Calif.) is attached to the 3′ end of the probe. When the probe and dyes are intact, reporter dye emission is quenched by the proximity of the 3′ quencher dye. During amplification, annealing of the probe to the target sequence creates a substrate that can be cleaved by the 5′-exonuclease activity of Taq polymerase.
With each cycle, additional reporter dye molecules are cleaved from their respective probes, and the fluorescence intensity is monitored at regular (six-second) intervals by laser optics built into the ABI PRISM 7700 Sequence Detection System. In each assay, a series of parallel reactions containing serial dilutions of mRNA from untreated control samples generates a standard curve that is used to quantitate the percent inhibition after antisense oligonucleotide treatment of test samples.
RT-PCR reagents were obtained from PE-Applied Biosystems, Foster City, Calif. RT-PCR reactions were carried out by adding 25 ul PCR cocktail (1× Taqman buffer A, 5.5 mM MgCl2, 300 uM each of dATP, dCTP and dGTP, 600 uM of dUTP, 100 nM each of forward primer, reverse primer, and probe, 20 U RNAse inhibitor, 1.25 units AmpliTaq Gold, and 12.5 U MuLV reverse transcriptase) to 96 well plates containing 25 ul poly(A) mRNA solution. […]

First: 18659 (DNA dG*dT*dG*dC*dC*dA*dG*dC*dC*dT*dT*dC*dT*dT*dC*dA*dC*dA; antisense) [compound 18659]
Second: 18660 (DNA dT*dA*dC*dA*dG*dT*dG*dC*dC*dA*dG*dC*dC*dT*dT*dC*dT*dT; antisense) [compound 18660]
The “% INHIB. (Inhibition of CD40 mRNA Levels by Phosphorothioate Oligodeoxynucleotides)” value of the first is lower: 5.67% for the first, 7.80% for the second.

“18661 (DNA dG*dG*dA*dC*dA*dC*dA*dG*dC*dT*dC*dT*dC*dA*dC*dA*dG*dG; antisense) [compound 18661]” and “18662 (DNA dT*dG*dC*dA*dG*dG*dA*dC*dA*dC*dA*dG*dC*dT*dC*dT*dC*dA; antisense) [compound 18662]” are the same in “% INHIB. (Inhibition of CD40 mRNA Levels by Phosphorothioate Oligodeoxynucleotides)” value: 0.00% for the first, 0.00% for the second.

“18663 (DNA dG*dA*dG*dC*dG*dG*dT*dG*dC*dA*dG*dG*dA*dC*dA*dC*dA*dG; antisense) [compound 18663]” and “18664 (DNA dA*dA*dG*dC*dC*dG*dG*dG*dC*dG*dA*dG*dC*dA*dT*dG*dA*dG; antisense) [compound 18664]” are the same in “% INHIB. (Inhibition of CD40 mRNA Levels by Phosphorothioate Oligodeoxynucleotides)” value: 0.00% for the first, 0.00% for the second.

First: 18665 (DNA dA*dA*dT*dC*dT*dG*dC*dT*dT*dG*dA*dC*dC*dC*dC*dA*dA*dA; antisense) [compound 18665]
Second: 18666 (DNA dG*dA*dA*dA*dC*dC*dC*dC*dT*dG*dT*dA*dG*dC*dA*dA*dT*dC; antisense) [compound 18666]
The “% INHIB. (Inhibition of CD40 mRNA Levels by Phosphorothioate Oligodeoxynucleotides)” value of the first is higher: 5.59% for the first, 0.10% for the second.

“18667 (DNA dG*dT*dA*dT*dC*dA*dG*dA*dA*dA*dC*dC*dC*dC*dT*dG*dT*dA; antisense) [compound 18667]” and “18668 (DNA dG*dC*dT*dC*dG*dC*dA*dG*dA*dT*dG*dG*dT*dA*dT*dC*dA*dG; antisense) [compound 18668]” are the same in “% INHIB. (Inhibition of CD40 mRNA Levels by Phosphorothioate Oligodeoxynucleotides)” value: 0.00% for the first, 0.00% for the second.

Compared with “18669 (DNA dG*dC*dA*dG*dG*dG*dC*dT*dC*dG*dC*dA*dG*dA*dT*dG*dG*dT; antisense) [compound 18669]”, “18670 (DNA dT*dG*dG*dG*dC*dA*dG*dG*dG*dC*dT*dC*dG*dC*dA*dG*dA*dT; antisense) [compound 18670]” is lower in “% INHIB. (Inhibition of CD40 mRNA Levels by Phosphorothioate Oligodeoxynucleotides)” value: 34.05% for the first, 0.00% for the second.

Going from “18671 (DNA dG*dA*dC*dT*dG*dG*dG*dC*dA*dG*dG*dG*dC*dT*dC*dG*dC*dA; antisense) [compound 18671]” to “18672 (DNA dC*dA*dT*dT*dG*dG*dA*dG*dA*dA*dG*dA*dA*dG*dC*dC*dG*dA; antisense) [compound 18672]”, the “% INHIB. (Inhibition of CD40 mRNA Levels by Phosphorothioate Oligodeoxynucleotides)” value falls from 2.71% to 0.00%.

“18673 (DNA dG*dA*dT*dG*dA*dC*dA*dC*dA*dT*dT*dG*dG*dA*dG*dA*dA*dG; antisense) [compound 18673]” and “18674 (DNA dG*dC*dA*dG*dA*dT*dG*dA*dC*dA*dC*dA*dT*dT*dG*dG*dA*dG; antisense) [compound 18674]” are the same in “% INHIB. (Inhibition of CD40 mRNA Levels by Phosphorothioate Oligodeoxynucleotides)” value: 0.00% for the first, 0.00% for the second.

Compared with “18675 (DNA dT*dC*dG*dA*dA*dA*dG*dC*dA*dG*dA*dT*dG*dA*dC*dA*dC*dA; antisense) [compound 18675]”, “18676 (DNA dG*dT*dC*dC*dA*dA*dG*dG*dG*dT*dG*dA*dC*dA*dT*dT*dT*dT; antisense) [compound 18676]” is higher in “% INHIB. (Inhibition of CD40 mRNA Levels by Phosphorothioate Oligodeoxynucleotides)” value: 0.00% for the first, 8.01% for the second.

“18677 (DNA dC*dA*dC*dA*dG*dC*dT*dT*dG*dT*dC*dC*dA*dA*dG*dG*dG*dT; antisense) [compound 18677]” and “18678 (DNA dT*dT*dG*dG*dT*dC*dT*dC*dA*dC*dA*dG*dC*dT*dT*dG*dT*dC; antisense) [compound 18678]” are the same in “% INHIB. (Inhibition of CD40 mRNA Levels by Phosphorothioate Oligodeoxynucleotides)” value: 0.00% for the first, 0.00% for the second.

Going from “18679 (DNA dC*dA*dG*dG*dT*dC*dT*dT*dT*dG*dG*dT*dC*dT*dC*dA*dC*dA; antisense) [compound 18679]” to “18680 (DNA dC*dT*dG*dT*dT*dG*dC*dA*dC*dA*dA*dC*dC*dA*dG*dG*dT*dC; antisense) [compound 18680]”, the “% INHIB. (Inhibition of CD40 mRNA Levels by Phosphorothioate Oligodeoxynucleotides)” value rises from 6.98% to 18.76%.

Compared with “18681 (DNA dG*dT*dT*dT*dG*dT*dG*dC*dC*dT*dG*dC*dC*dT*dG*dT*dT*dG; antisense) [compound 18681]”, “18682 (DNA dG*dT*dC*dT*dT*dG*dT*dT*dT*dG*dT*dG*dC*dC*dT*dG*dC*dC; antisense) [compound 18682]” is lower in “% INHIB. (Inhibition of CD40 mRNA Levels by Phosphorothioate Oligodeoxynucleotides)” value: 2.43% for the first, 0.00% for the second.

“18683 (DNA dC*dC*dA*dC*dA*dG*dA*dC*dA*dA*dC*dA*dT*dC*dA*dG*dT*dC; antisense) [compound 18683]” and “18684 (DNA dC*dT*dG*dG*dG*dG*dA*dC*dC*dA*dC*dA*dG*dA*dC*dA*dA*dC; antisense) [compound 18684]” are the same in “% INHIB. (Inhibition of CD40 mRNA Levels by Phosphorothioate Oligodeoxynucleotides)” value: 0.00% for the first, 0.00% for the second.

Compared with “18685 (DNA dT*dC*dA*dG*dC*dC*dG*dA*dT*dC*dC*dT*dG*dG*dG*dG*dA*dC; antisense) [compound 18685]”, “18686 (DNA dC*dA*dC*dC*dA*dC*dC*dA*dG*dG*dG*dC*dT*dC*dT*dC*dA*dG; antisense) [compound 18686]” is higher in “% INHIB. (Inhibition of CD40 mRNA Levels by Phosphorothioate Oligodeoxynucleotides)” value: 0.00% for the first, 23.31% for the second.

“18687 (DNA dG*dG*dG*dA*dT*dC*dA*dC*dC*dA*dC*dC*dA*dG*dG*dG*dC*dT; antisense) [compound 18687]” and “18688 (DNA dG*dA*dG*dG*dA*dT*dG*dG*dC*dA*dA*dA*dC*dA*dG*dG*dA*dT; antisense) [compound 18688]” are the same in “% INHIB. (Inhibition of CD40 mRNA Levels by Phosphorothioate Oligodeoxynucleotides)” value: 0.00% for the first, 0.00% for the second.

“18689 (DNA dA*dC*dC*dA*dG*dC*dA*dC*dC*dA*dA*dG*dA*dG*dG*dA*dT*dG; antisense) [compound 18689]” and “18690 (DNA dT*dT*dT*dT*dG*dA*dT*dA*dA*dA*dG*dA*dC*dC*dA*dG*dC*dA; antisense) [compound 18690]” are the same in “% INHIB. (Inhibition of CD40 mRNA Levels by Phosphorothioate Oligodeoxynucleotides)” value: 0.00% for the first, 0.00% for the second.

“18691 (DNA dT*dA*dT*dT*dG*dG*dT*dT*dG*dG*dC*dT*dT*dC*dT*dT*dG*dG; antisense) [compound 18691]” and “18692 (DNA dG*dG*dG*dT*dT*dC*dC*dT*dG*dC*dT*dT*dG*dG*dG*dG*dT*dG; antisense) [compound 18692]” are the same in “% INHIB. (Inhibition of CD40 mRNA Levels by Phosphorothioate Oligodeoxynucleotides)” value: 0.00% for the first, 0.00% for the second.

“18693 (DNA dG*dT*dC*dG*dG*dG*dA*dA*dA*dA*dT*dT*dG*dA*dT*dC*dT*dC; antisense) [compound 18693]” and “18694 (DNA dG*dA*dT*dC*dG*dT*dC*dG*dG*dG*dA*dA*dA*dA*dT*dT*dG*dA; antisense) [compound 18694]” are the same in “% INHIB. (Inhibition of CD40 mRNA Levels by Phosphorothioate Oligodeoxynucleotides)” value: 0.00% for the first, 0.00% for the second.
